System: untransfected CHO parental cells
Experiment: CHO parental cells assay (intracellular cAMP, RIA)
Type: cell-based, Chinese Hamster
Conditions: tested on untransfected CHO parental cells
Experimental: Briefly CHO parental cells were plated in 96 well packard view plates 5×10^4 cells/well in serum containing media. […] The wells were washed with serum free assay medium (containing 0.1 mM MIX) and pre-incubated for 15 minutes in this medium. Compound 1 and forskolin (positive control) were added and the cells were incubated for an additional one hour. The cells were lysed and intracellular cAMP was measured using the Amersham direct one step cAMP-RIA kit according to the manufacturers directions.

Structure (SMILES): CC(C)(C)c1ccc(-n2nc(-c3cccnc3)cc2CCCCC(=O)NC(Cc2ccc(O)cc2)C(N)=O)cc1 (stereo not shown) [Compound 1-B, N-(5-[1-(4-tert-butylphenyl)-3-pyridin-3-yl-1H-pyrazol-5-yl]pentanoyl)tyrosinamide]
- hFSHR specificity: hFSHR specific
